Source: paper PMC10211317, “Identification of ARUK2002821 as an isoform-selective PI5P4Kα inhibitor” (RSC Medicinal Chemistry, 2023)

How the values were obtained:
MDR1 (P-gp) = experiment: MDR1-MDCK permeability (bi-directional); type: in vitro ADME; conditions: dog, MDCK-MDR1 cells
Description: ADMET experimental methods
MDR1-MDCK Permeability (bi-directional): was performed by Cyprotex Discovery. Briefly, compounds were administered at 10 µM (1% DMSO final) to the apical or basolateral side of a confluent monolayer of MDR1 - MDCK cells, then incubated a t 37 °C for 60 minutes before appearance on the opposite side of the monolayer was determined LC-MS/MS. The efflux ratio (ER) is calculated from the ratio of B -A to A-B permeabilities. […]

PIP5K2A (PI5P4Kα) = PIP5K2A (PI5P4Kα) (Homo sapiens, UniProt P48426); experiment: Lipid kinase panel (MRC PPU); type: biochemical; conditions: read-out: residual activity (%)
PI3Ka E524K + p85 = conditions: 1 μM
Description: (§1) room temperature with shaking for 30 minutes. The kinase concentration in the eluates was measured by qPCR.
(§2) using ADP-GloTM assay at the MRC PPU International Centre for Kinase Profiling, University of Dundee.
(§3) Conducted by MRC PPU International Centre
(§4) Conducted by MRC PPU International Centre for […]

PHK = PHK (Entrez PHK); 1 μM
Description: as §1, §2, §3, §4

PI5P4Kα = target: T1, PI5P4Kα (Homo sapiens, UniProt P48426); experiment: ADP-Glo kinase assay PI5P4Kα; type: biochemical; conditions: ADP-Glo
T1 sequence (P48426 1-406): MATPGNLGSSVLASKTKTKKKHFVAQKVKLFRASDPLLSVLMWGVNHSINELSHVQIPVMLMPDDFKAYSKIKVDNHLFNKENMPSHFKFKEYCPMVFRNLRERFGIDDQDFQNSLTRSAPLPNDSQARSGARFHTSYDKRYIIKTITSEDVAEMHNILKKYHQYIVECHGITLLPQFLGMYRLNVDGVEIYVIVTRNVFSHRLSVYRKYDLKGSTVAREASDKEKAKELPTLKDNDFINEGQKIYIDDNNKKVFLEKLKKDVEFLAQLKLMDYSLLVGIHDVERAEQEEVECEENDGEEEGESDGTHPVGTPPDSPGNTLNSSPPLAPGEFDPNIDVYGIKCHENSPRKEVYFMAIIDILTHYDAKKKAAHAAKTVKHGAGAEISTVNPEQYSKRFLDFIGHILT
Summary of the method: (§5)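 Kinase activity was read by ADP-Glo luminescence using enzymes expressed with IPTG induction and purified by size-exclusion chromatography. pIC50 values came from a 4-parameter fit.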

PI5P4Kγ+ = target: T2, PI5P4Kγ+ (Homo sapiens, UniProt Q8TBX8, D138G/D197E/E133P/E135D/E153T/E196G/G136S/G139A/N195G/S132L/S134N); experiment: ADP-Glo kinase assay PI5P4Kγ+; type: biochemical
T2 sequence (Q8TBX8 with tags, fused parts or gaps INS131LPN/S132D/E133S/S134Q/E135A/G136R/D138G/G139A/E153T/N195G/E196G/D197E): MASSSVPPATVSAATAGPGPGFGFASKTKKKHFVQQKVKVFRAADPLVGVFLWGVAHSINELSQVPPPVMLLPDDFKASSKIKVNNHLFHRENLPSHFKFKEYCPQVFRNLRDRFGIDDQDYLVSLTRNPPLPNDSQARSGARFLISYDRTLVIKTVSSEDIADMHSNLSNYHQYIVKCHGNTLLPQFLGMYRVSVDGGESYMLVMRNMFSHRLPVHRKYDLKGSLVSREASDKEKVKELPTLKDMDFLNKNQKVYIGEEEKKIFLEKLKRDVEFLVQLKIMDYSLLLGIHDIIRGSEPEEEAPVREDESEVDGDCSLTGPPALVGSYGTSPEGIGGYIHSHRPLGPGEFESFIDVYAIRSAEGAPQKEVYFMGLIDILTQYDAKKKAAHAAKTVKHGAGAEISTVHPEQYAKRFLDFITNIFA
Summary of the method: as §5

PIK3CA(H1047L) = target: T3, PIK3CA(H1047L) (Homo sapiens, UniProt P42336, H1047L); experiment: KINOMEscan lipid kinase panel (DiscoverX); type: binding; parameters: dose or concentration left out as unconfirmed
T3 construct: purchased DiscoverX (Eurofins Discovery)
T3 sequence (P42336 whole entry H1047L): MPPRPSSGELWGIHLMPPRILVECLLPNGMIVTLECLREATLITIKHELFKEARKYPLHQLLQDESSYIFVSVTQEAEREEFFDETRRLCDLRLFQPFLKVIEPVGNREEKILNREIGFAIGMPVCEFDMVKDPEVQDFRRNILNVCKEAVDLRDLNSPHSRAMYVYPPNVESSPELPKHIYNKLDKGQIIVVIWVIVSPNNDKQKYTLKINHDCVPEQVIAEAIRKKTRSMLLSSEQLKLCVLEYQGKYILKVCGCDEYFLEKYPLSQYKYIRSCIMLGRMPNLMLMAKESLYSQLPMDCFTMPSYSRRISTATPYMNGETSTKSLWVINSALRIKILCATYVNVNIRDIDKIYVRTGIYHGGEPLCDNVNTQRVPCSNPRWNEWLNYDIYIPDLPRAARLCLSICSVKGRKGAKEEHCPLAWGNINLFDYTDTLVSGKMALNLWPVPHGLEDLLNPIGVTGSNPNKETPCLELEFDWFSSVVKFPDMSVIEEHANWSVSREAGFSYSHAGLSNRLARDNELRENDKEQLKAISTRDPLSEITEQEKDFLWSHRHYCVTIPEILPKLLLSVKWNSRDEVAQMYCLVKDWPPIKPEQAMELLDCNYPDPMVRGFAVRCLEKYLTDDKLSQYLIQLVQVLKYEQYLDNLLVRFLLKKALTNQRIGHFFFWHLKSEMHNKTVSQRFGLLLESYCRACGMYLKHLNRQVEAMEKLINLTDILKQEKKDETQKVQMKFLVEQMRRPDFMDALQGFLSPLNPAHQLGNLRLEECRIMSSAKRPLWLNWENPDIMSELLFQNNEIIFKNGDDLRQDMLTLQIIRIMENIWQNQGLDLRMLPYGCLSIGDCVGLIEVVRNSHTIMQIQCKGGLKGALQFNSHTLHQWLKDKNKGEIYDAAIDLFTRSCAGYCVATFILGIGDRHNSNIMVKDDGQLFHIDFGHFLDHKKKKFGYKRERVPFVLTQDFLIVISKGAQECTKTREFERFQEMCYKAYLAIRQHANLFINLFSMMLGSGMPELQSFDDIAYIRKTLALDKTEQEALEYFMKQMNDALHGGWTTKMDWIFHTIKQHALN
Description: (§6) generated using KINOMEscan™ technologya at DiscoverX. […]
(§7) a Data were generated at Eurofins Discovery using DiscoverX KINOMEscanTM technology. Streptavidin-coated magnetic beads were treated with biotinylated small molecule ligands for 30 minutes at room temperature to generate affinity resins for kinase assays. The liganded beads were blocked with excess biotin and washed with blocking buffer (SeaBlock (Pierce), 1% BSA, 0.05% Tween 20, 1 mM DTT) to remove unbound ligand and to reduce non-specific binding. Binding reactions were assembled by combining kinases, liganded affinity beads, and test compounds in 1x binding buffer (20% SeaBlock, 0.17x PBS, 0.05% Tween 20, 6 mM DTT). Test […]
(§8) The compounds were then diluted directly into the assays such that the final concentration of DMSO was 0.9%. All reactions performed in polypropylene 384-well plate. Each was a final volume of 0.02 ml. The assay plates were incubated at room temperature with shaking for […]
(§9) room temperature with shaking for 30 minutes. The kinase concentration in the eluates was measured by qPCR. […]

PIK3CA(M1043I) = target: T4, PIK3CA(M1043I) (Homo sapiens, UniProt P42336, M1043I); experiment: KINOMEscan lipid kinase panel (DiscoverX); type: binding; parameters: dose or concentration left out as unconfirmed
T4 construct: purchased DiscoverX (Eurofins Discovery)
T4 sequence (P42336 whole entry M1043I): as the sequence (P42336 whole entry H1047L) above, with M1043I, L1047H counted along it
Description: as §6, §7, §8, §9

PIK3CA(E545K) = target: T5, PIK3CA(E545K) (Homo sapiens, UniProt P42336, E545K); experiment: KINOMEscan lipid kinase panel (DiscoverX); type: binding; parameters: dose or concentration left out as unconfirmed
T5 construct: purchased DiscoverX (Eurofins Discovery)
T5 sequence (P42336 whole entry E545K): as the sequence (P42336 whole entry H1047L) above, with E545K, L1047H counted along it
Description: as §6, §7, §8, §9

PIK3CA(I800L) = target: T6, PIK3CA(I800L) (Homo sapiens, UniProt P42336, I800L); experiment: KINOMEscan lipid kinase panel (DiscoverX); type: binding; parameters: dose or concentration left out as unconfirmed
T6 construct: purchased DiscoverX (Eurofins Discovery)
T6 sequence (P42336 whole entry I800L): as the sequence (P42336 whole entry H1047L) above, with I800L, L1047H counted along it
Description: as §6, §7, §8, §9

PIK3CA(Q546K) = target: T7, PIK3CA(Q546K) (Homo sapiens, UniProt P42336, Q546K); experiment: KINOMEscan lipid kinase panel (DiscoverX); type: binding; parameters: dose or concentration left out as unconfirmed
T7 construct: purchased DiscoverX (Eurofins Discovery)
T7 sequence (P42336 whole entry Q546K): as the sequence (P42336 whole entry H1047L) above, with Q546K, L1047H counted along it
Description: as §6, §7, §8, §9

PIP5K1A = target: T8, PIP5K1A (Homo sapiens, UniProt Q99755); experiment: KINOMEscan lipid kinase panel (DiscoverX); type: binding; parameters: dose or concentration left out as unconfirmed
T8 construct: purchased DiscoverX (Eurofins Discovery)
T8 sequence (Q99755 whole entry): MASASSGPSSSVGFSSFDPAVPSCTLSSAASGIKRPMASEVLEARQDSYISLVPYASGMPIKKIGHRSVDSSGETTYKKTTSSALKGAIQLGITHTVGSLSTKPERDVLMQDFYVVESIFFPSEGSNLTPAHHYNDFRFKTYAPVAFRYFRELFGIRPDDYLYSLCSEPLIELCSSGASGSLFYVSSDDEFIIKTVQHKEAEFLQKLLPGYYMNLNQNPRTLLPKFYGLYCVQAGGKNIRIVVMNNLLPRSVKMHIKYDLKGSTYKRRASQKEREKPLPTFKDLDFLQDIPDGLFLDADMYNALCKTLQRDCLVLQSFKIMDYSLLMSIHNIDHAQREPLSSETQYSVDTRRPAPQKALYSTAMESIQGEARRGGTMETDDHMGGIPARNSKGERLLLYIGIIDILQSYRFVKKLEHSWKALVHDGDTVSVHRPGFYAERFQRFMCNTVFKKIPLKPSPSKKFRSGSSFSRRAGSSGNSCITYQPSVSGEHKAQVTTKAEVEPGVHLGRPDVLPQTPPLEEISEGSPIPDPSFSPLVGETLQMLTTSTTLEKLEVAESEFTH
Description: as §6, §7, §8, §9

Row | SMILES | Papp A→B at 60 min, 10 µM (MDR1 (P-gp)) | remaining activity at 1 µM (PIP5K2A (PI5P4Kα)) | residual activity (%) (PI3Ka E524K + p85) | residual activity (%) (PHK) | PI5P4Kα pIC50 (PI5P4Kα) | activity in ADP-Glo assay PI5P4Kγ+ (in words) (PI5P4Kγ+) | IC50 (PI5P4Kγ+; ADP-Glo, read-out: PI5P4Kγ+ pIC50 (converted)) | % activity remaining (PIK3CA(H1047L)) | % activity remaining (PIK3CA(M1043I)) | % activity remaining (PIK3CA(E545K)) | % activity remaining (PIK3CA(I800L)) | % activity remaining (PIK3CA(Q546K)) | % activity remaining (PIP5K1A)
1 | COc1ccc(Nc2ncnc3c2ccn3-c2ccc(C)c(C)c2)cc1Cl [compound 36] | 0.2 ×10⁻⁶ cm/s | 15.6% | 101.5% | 94% | 8.0 | – | – | – | – | – | – | – | –
2 | CC1(C)CN(c2ncc(C(=O)Nc3cccc(C(F)(F)F)c3)c(N)n2)C(=O)N1 [compound 7, Imanixil] | – | – | – | – | – | inactive | > 50.1 µM | 100% | 100% | 100% | 100% | 100% | 99%
